Data as given in PubChem BioAssay (NCI).
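Cultured in 96-well plates, cells were exposed to test compound for 48 hours across five concentrations. TGI: concentration producing complete growth inhibition.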

Tests used:
Assay in all cases: NCI tumour cell line growth inhibition, 48 h
A498 renal = system: A498 renal
ACHN renal = system: ACHN renal
CAKI-1 renal = system: CAKI-1 renal
CCRF-CEM leukemia = system: CCRF-CEM leukemia
DLD-1 colon = system: DLD-1 colon
DMS 114 small cell lung = system: DMS 114 small cell lung
DMS 273 small cell lung = system: DMS 273 small cell lung
HCT-116 colon = system: HCT-116 colon
HL-60(TB) leukemia = system: HL-60(TB) leukemia
HOP-62 NSCLC = system: HOP-62 NSCLC
HT29 colon = system: HT29 colon
K-562 leukemia = system: K-562 leukemia
KM12 colon = system: KM12 colon
LOX IMVI melanoma = system: LOX IMVI melanoma
LXFL 529 NSCLC = system: LXFL 529 NSCLC
M14 melanoma = system: M14 melanoma
M19-MEL melanoma = system: M19-MEL melanoma
MALME-3M melanoma = system: MALME-3M melanoma
MOLT-4 leukemia = system: MOLT-4 leukemia
NCI-H23 lung = system: NCI-H23 lung
NCI-H460 lung = system: NCI-H460 lung
NCI-H522 lung = system: NCI-H522 lung
OVCAR-4 ovarian = system: OVCAR-4 ovarian
OVCAR-5 ovarian = system: OVCAR-5 ovarian
OVCAR-8 ovarian = system: OVCAR-8 ovarian
RPMI-8226 leukemia = system: RPMI-8226 leukemia
RXF 393 renal = system: RXF 393 renal
SF-295 CNS = system: SF-295 CNS
SK-MEL-2 melanoma = system: SK-MEL-2 melanoma
SK-MEL-28 melanoma = system: SK-MEL-28 melanoma
SK-MEL-5 melanoma = system: SK-MEL-5 melanoma
SN12C renal = system: SN12C renal
SNB-19 CNS = system: SNB-19 CNS
SNB-78 CNS = system: SNB-78 CNS
SR leukemia = system: SR leukemia
TK-10 renal = system: TK-10 renal
U251 CNS = system: U251 CNS
UACC-257 melanoma = system: UACC-257 melanoma
UO-31 renal = system: UO-31 renal
XF 498 CNS = system: XF 498 CNS
786-0 renal = system: 786-0 renal
A549 NSCLC = system: A549 NSCLC
COLO 205 colon = system: COLO 205 colon
EKVX NSCLC = system: EKVX NSCLC
HCC-2998 colon = system: HCC-2998 colon
HCT-15 colon = system: HCT-15 colon
HOP-92 NSCLC = system: HOP-92 NSCLC
IGROV1 ovarian = system: IGROV1 ovarian
KM20L2 colon = system: KM20L2 colon
NCI-H226 lung = system: NCI-H226 lung
OVCAR-3 ovarian = system: OVCAR-3 ovarian
SF-268 CNS = system: SF-268 CNS
SF-539 CNS = system: SF-539 CNS
SK-OV-3 ovarian = system: SK-OV-3 ovarian
SNB-75 CNS = system: SNB-75 CNS
SW-620 colon = system: SW-620 colon
UACC-62 melanoma = system: UACC-62 melanoma
BT-549 breast = system: BT-549 breast
DU-145 prostate = system: DU-145 prostate
MCF7 breast = system: MCF7 breast
MDA-MB-231 breast = system: MDA-MB-231 breast
MDA-MB-435 = system: MDA-MB-435
MDA-N = system: MDA-N
NCI/ADR-RES ovarian = system: NCI/ADR-RES ovarian
PC-3 prostate = system: PC-3 prostate
HOP-18 NSCLC = system: HOP-18 NSCLC

## Clc1ccccc1C(n1cc(Br)cn1)n1cc(Br)cn1
A498 renal
  TGI: 35.9 µM
ACHN renal
  TGI: 55.2 µM
CAKI-1 renal
  TGI: > 100 µM
CCRF-CEM leukemia
  TGI: 93.1 µM
DLD-1 colon
  TGI: 54 µM
DMS 114 small cell lung
  TGI: 56 µM
DMS 273 small cell lung
  TGI: 53 µM
HCT-116 colon
  TGI: 42.9 µM
HL-60(TB) leukemia
  TGI: 44.6 µM
HOP-62 NSCLC
  TGI: 57.9 µM
HT29 colon
  TGI: 29 µM
K-562 leukemia
  TGI: > 100 µM
KM12 colon
  TGI: 40.8 µM
LOX IMVI melanoma
  TGI: 31.2 µM
LXFL 529 NSCLC
  TGI: > 100 µM
M14 melanoma
  TGI: 36.9 µM
M19-MEL melanoma
  TGI: 34.5 µM
MALME-3M melanoma
  TGI: 46.9 µM
MOLT-4 leukemia
  TGI: 39.2 µM
NCI-H23 lung
  TGI: > 100 µM
NCI-H460 lung
  TGI: 28.1 µM
NCI-H522 lung
  TGI: > 100 µM
OVCAR-4 ovarian
  TGI: > 100 µM
OVCAR-5 ovarian
  TGI: 49 µM
OVCAR-8 ovarian
  TGI: 55.1 µM
RPMI-8226 leukemia
  TGI: 46.3 µM
RXF 393 renal
  TGI: 34.4 µM
SF-295 CNS
  TGI: 43.1 µM
SK-MEL-2 melanoma
  TGI: 45.6 µM
SK-MEL-28 melanoma
  TGI: > 100 µM
SK-MEL-5 melanoma
  TGI: 23.1 µM
SN12C renal
  TGI: 30.6 µM
SNB-19 CNS
  TGI: > 100 µM
SNB-78 CNS
  TGI: > 100 µM
SR leukemia
  TGI: 92.9 µM
TK-10 renal
  TGI: > 100 µM
U251 CNS
  TGI: > 100 µM
UACC-257 melanoma
  TGI: 31.7 µM
UO-31 renal
  TGI: 32.6 µM
XF 498 CNS
  TGI: 40.6 µM

## CCOc1ccccc1NC(=O)C(=O)CC(=O)C1=C(C)Nc2ccccc2S1
786-0 renal
  TGI: > 100 µM
A498 renal
  TGI: > 100 µM
A549 NSCLC
  TGI: > 100 µM
ACHN renal
  TGI: > 100 µM
CAKI-1 renal
  TGI: > 100 µM
CCRF-CEM leukemia
  TGI: > 100 µM
COLO 205 colon
  TGI: > 100 µM
DLD-1 colon
  TGI: > 100 µM
DMS 273 small cell lung
  TGI: > 100 µM
EKVX NSCLC
  TGI: > 100 µM
HCC-2998 colon
  TGI: > 100 µM
HCT-116 colon
  TGI: > 100 µM
HCT-15 colon
  TGI: > 100 µM
HL-60(TB) leukemia
  TGI: > 36.2 µM
HOP-62 NSCLC
  TGI: > 100 µM
HOP-92 NSCLC
  TGI: > 100 µM
HT29 colon
  TGI: > 100 µM
IGROV1 ovarian
  TGI: > 100 µM
K-562 leukemia
  TGI: > 76.4 µM
KM12 colon
  TGI: > 100 µM
KM20L2 colon
  TGI: > 100 µM
LOX IMVI melanoma
  TGI: > 100 µM
LXFL 529 NSCLC
  TGI: > 100 µM
M14 melanoma
  TGI: > 100 µM
M19-MEL melanoma
  TGI: > 100 µM
MALME-3M melanoma
  TGI: > 100 µM
MOLT-4 leukemia
  TGI: > 69.5 µM
NCI-H226 lung
  TGI: > 100 µM
NCI-H23 lung
  TGI: > 100 µM
NCI-H460 lung
  TGI: > 100 µM
NCI-H522 lung
  TGI: > 100 µM
OVCAR-3 ovarian
  TGI: > 100 µM
OVCAR-4 ovarian
  TGI: > 100 µM
OVCAR-5 ovarian
  TGI: > 100 µM
OVCAR-8 ovarian
  TGI: > 100 µM
RPMI-8226 leukemia
  TGI: > 100 µM
RXF 393 renal
  TGI: > 100 µM
SF-268 CNS
  TGI: > 100 µM
SF-295 CNS
  TGI: > 100 µM
SF-539 CNS
  TGI: > 100 µM
SK-MEL-2 melanoma
  TGI: > 100 µM
SK-MEL-28 melanoma
  TGI: > 100 µM
SK-MEL-5 melanoma
  TGI: > 100 µM
SK-OV-3 ovarian
  TGI: > 100 µM
SN12C renal
  TGI: > 100 µM
SNB-19 CNS
  TGI: > 100 µM
SNB-75 CNS
  TGI: > 100 µM
SNB-78 CNS
  TGI: > 100 µM
SW-620 colon
  TGI: > 100 µM
TK-10 renal
  TGI: > 100 µM
U251 CNS
  TGI: > 100 µM
UACC-257 melanoma
  TGI: > 100 µM
UACC-62 melanoma
  TGI: > 100 µM
UO-31 renal
  TGI: > 100 µM
XF 498 CNS
  TGI: > 100 µM

## COc1ccc(/C=C2/C(=O)N(C(=O)c3ccccc3O)N=C2C)cc1OC
786-0 renal
  TGI: > 100 µM
A549 NSCLC
  TGI: > 100 µM
ACHN renal
  TGI: > 100 µM
BT-549 breast
  TGI: > 100 µM
CAKI-1 renal
  TGI: > 28.1 µM
CCRF-CEM leukemia
  TGI: > 100 µM
COLO 205 colon
  TGI: > 95.1 µM
DLD-1 colon
  TGI: > 100 µM
DMS 114 small cell lung
  TGI: 3.61 µM
DU-145 prostate
  TGI: > 100 µM
EKVX NSCLC
  TGI: > 100 µM
HCC-2998 colon
  TGI: > 100 µM
HCT-116 colon
  TGI: > 100 µM
HCT-15 colon
  TGI: > 100 µM
HL-60(TB) leukemia
  TGI: > 33.6 µM
HOP-62 NSCLC
  TGI: > 20.8 µM
HOP-92 NSCLC
  TGI: > 100 µM
HT29 colon
  TGI: > 100 µM
K-562 leukemia
  TGI: > 100 µM
KM12 colon
  TGI: > 100 µM
KM20L2 colon
  TGI: > 100 µM
LOX IMVI melanoma
  TGI: > 54.2 µM
LXFL 529 NSCLC
  TGI: > 100 µM
M14 melanoma
  TGI: > 55.6 µM
M19-MEL melanoma
  TGI: 65.4 µM
MALME-3M melanoma
  TGI: > 100 µM
MCF7 breast
  TGI: 33.9 µM
MDA-MB-231 breast
  TGI: > 100 µM
MDA-MB-435
  TGI: > 100 µM
MDA-N
  TGI: > 100 µM
MOLT-4 leukemia
  TGI: > 100 µM
NCI-H226 lung
  TGI: 40.5 µM
NCI-H460 lung
  TGI: > 100 µM
NCI-H522 lung
  TGI: > 100 µM
NCI/ADR-RES ovarian
  TGI: > 100 µM
OVCAR-3 ovarian
  TGI: 10.5 µM
OVCAR-4 ovarian
  TGI: > 100 µM
OVCAR-5 ovarian
  TGI: > 100 µM
OVCAR-8 ovarian
  TGI: > 100 µM
PC-3 prostate
  TGI: > 100 µM
RPMI-8226 leukemia
  TGI: > 100 µM
RXF 393 renal
  TGI: 0.097 µM
SF-268 CNS
  TGI: > 100 µM
SF-295 CNS
  TGI: > 100 µM
SK-MEL-2 melanoma
  TGI: > 30.9 µM
SK-MEL-28 melanoma
  TGI: > 100 µM
SK-MEL-5 melanoma
  TGI: 24.6 µM
SK-OV-3 ovarian
  TGI: > 100 µM
SN12C renal
  TGI: > 50.7 µM
SNB-78 CNS
  TGI: > 100 µM
SR leukemia
  TGI: > 100 µM
SW-620 colon
  TGI: > 100 µM
TK-10 renal
  TGI: > 100 µM
U251 CNS
  TGI: > 100 µM
UACC-257 melanoma
  TGI: > 100 µM
UACC-62 melanoma
  TGI: 0.591 µM
UO-31 renal
  TGI: > 100 µM
XF 498 CNS
  TGI: > 100 µM

## CN(C)c1nc(N(C)C)nc(N(C)CN(C)c2ccccc2)n1
A549 NSCLC
  TGI: > 100 µM
ACHN renal
  TGI: > 100 µM
CCRF-CEM leukemia
  TGI: > 100 µM
DMS 114 small cell lung
  TGI: > 100 µM
HCC-2998 colon
  TGI: > 100 µM
HCT-116 colon
  TGI: > 100 µM
HCT-15 colon
  TGI: > 100 µM
HL-60(TB) leukemia
  TGI: > 100 µM
HOP-18 NSCLC
  TGI: > 100 µM
HT29 colon
  TGI: > 100 µM
IGROV1 ovarian
  TGI: > 100 µM
K-562 leukemia
  TGI: > 100 µM
KM12 colon
  TGI: > 100 µM
LOX IMVI melanoma
  TGI: > 100 µM
LXFL 529 NSCLC
  TGI: > 100 µM
M19-MEL melanoma
  TGI: > 100 µM
MALME-3M melanoma
  TGI: > 100 µM
MOLT-4 leukemia
  TGI: > 100 µM
NCI-H226 lung
  TGI: > 100 µM
NCI-H23 lung
  TGI: > 100 µM
NCI-H460 lung
  TGI: > 100 µM
NCI-H522 lung
  TGI: > 100 µM
OVCAR-3 ovarian
  TGI: > 100 µM
OVCAR-4 ovarian
  TGI: > 100 µM
OVCAR-8 ovarian
  TGI: > 100 µM
RXF 393 renal
  TGI: > 100 µM
SF-268 CNS
  TGI: > 100 µM
SF-295 CNS
  TGI: > 100 µM
SF-539 CNS
  TGI: > 100 µM
SK-MEL-2 melanoma
  TGI: > 100 µM
SK-MEL-28 melanoma
  TGI: > 100 µM
SK-MEL-5 melanoma
  TGI: > 100 µM
SK-OV-3 ovarian
  TGI: > 100 µM
SN12C renal
  TGI: > 100 µM
SNB-19 CNS
  TGI: > 100 µM
SNB-75 CNS
  TGI: > 100 µM
SNB-78 CNS
  TGI: > 100 µM
TK-10 renal
  TGI: > 100 µM
U251 CNS
  TGI: > 100 µM
UACC-257 melanoma
  TGI: > 100 µM
UACC-62 melanoma
  TGI: > 100 µM
UO-31 renal
  TGI: > 100 µM
XF 498 CNS
  TGI: > 100 µM
